Measured values published in ChEMBL document CHEMBL1141197, “Interaction of papain-like cysteine proteases with dipeptide-derived nitriles” (J Med Chem, 2005).
pKi: −log10 of the molar value. Where a SMILES comes first, the peptide text is derived from it. The star is where a group is joined. Boc = CC(C)(C)OC(=O)*

What was measured:
[1] = target: Procathepsin L (Bos taurus, UniProt P25975); test: Inhibitory activity against bovine cathepsin L using Z-Phe-Arg-NHMec substrate
[2] = target: T1, Cathepsin K (Homo sapiens, UniProt P43235); test: Inhibitory activity against human cathepsin K using Z-Leu-Arg-NHMec substrate
T1 sequence (P43235 whole entry): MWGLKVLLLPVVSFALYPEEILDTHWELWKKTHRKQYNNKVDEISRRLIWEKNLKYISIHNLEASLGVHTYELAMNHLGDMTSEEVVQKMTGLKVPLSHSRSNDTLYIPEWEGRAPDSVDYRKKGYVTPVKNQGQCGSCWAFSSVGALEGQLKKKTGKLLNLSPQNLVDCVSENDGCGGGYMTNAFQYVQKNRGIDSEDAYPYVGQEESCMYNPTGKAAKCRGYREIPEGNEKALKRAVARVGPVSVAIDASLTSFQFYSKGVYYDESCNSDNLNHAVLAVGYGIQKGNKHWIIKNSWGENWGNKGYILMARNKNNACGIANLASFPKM

[3] = target: T2, Papain (Carica papaya, UniProt P00784); test: Inhibitory activity against papain using Z-Phe-Arg-NHNp substrate
T2 sequence (P00784 whole entry): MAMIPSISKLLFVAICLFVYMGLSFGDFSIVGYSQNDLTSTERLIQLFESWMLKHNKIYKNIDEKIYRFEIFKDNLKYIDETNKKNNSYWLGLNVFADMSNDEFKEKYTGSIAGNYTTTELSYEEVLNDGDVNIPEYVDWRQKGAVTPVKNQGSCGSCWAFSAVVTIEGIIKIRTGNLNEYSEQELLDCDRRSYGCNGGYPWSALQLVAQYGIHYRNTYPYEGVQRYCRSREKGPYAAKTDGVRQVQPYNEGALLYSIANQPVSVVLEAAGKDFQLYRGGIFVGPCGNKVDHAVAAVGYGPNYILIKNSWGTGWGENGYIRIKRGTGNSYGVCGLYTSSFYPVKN

[4] = target: Procathepsin L (Homo sapiens, UniProt P07711); test: Inhibitory activity against human cathepsin L using Z-Phe-Arg-NHMec substrate
[5] = target: Cathepsin S (Homo sapiens, UniProt P25774); test: Inhibitory activity against human cathepsin S using Z-Val-Val-Arg-NHMec substrate
Cathepsin S, sequence (P25774 whole entry): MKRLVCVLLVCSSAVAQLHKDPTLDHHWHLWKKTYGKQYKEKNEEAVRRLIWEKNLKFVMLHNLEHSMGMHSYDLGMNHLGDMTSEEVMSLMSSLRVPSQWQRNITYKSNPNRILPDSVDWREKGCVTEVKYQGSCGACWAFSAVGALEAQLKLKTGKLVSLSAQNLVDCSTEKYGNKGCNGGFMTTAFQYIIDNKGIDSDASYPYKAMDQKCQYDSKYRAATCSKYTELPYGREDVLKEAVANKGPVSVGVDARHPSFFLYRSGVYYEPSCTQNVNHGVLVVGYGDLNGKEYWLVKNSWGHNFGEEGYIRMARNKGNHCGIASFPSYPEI

Procathepsin L (Homo sapiens, UniProt P07711), sequence (P07711 whole entry): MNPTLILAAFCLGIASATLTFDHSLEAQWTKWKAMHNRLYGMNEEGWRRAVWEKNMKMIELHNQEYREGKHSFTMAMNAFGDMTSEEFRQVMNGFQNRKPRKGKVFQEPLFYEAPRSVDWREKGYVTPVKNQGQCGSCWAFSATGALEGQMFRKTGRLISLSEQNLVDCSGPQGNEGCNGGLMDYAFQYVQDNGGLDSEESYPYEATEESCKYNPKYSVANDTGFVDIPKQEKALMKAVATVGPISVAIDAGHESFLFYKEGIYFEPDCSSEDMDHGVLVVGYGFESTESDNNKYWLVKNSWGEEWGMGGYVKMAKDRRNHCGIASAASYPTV
Procathepsin L (Bos taurus, UniProt P25975), sequence (P25975 whole entry): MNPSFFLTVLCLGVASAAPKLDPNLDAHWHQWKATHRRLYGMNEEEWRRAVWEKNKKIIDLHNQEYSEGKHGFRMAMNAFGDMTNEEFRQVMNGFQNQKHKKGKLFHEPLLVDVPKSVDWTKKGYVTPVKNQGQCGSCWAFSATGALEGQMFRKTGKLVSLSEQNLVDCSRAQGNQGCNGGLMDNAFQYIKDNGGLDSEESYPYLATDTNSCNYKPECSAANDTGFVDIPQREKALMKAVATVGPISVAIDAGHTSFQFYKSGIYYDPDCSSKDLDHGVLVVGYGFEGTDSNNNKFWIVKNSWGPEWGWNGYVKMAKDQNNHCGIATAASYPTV

| SMILES | pKi [1] | pKi [2] | pKi [3] | pKi [4] | pKi [5] |
| --- | --- | --- | --- | --- | --- |
| CC(C)(C)OC(=O)N[C@@H](Cc1csc2ccccc12)C(=O)NCC#N | 6.49 | 4.47 | 5.13 | 6.54 | 6.52 |
| CC(C)(C)OC(=O)N[C@@H](Cc1ccccc1-c1ccccc1)C(=O)NCC#N | < 4.00 | < 4.00 | 3.52 | – | < 4.00 |
| CC(C)(C)OC(=O)N[C@@H](Cc1c(F)c(F)c(F)c(F)c1F)C(=O)NCC#N | 5.60 | < 4.00 | 4.85 | – | 4.82 |
| CSCC[C@H](NC(=O)OC(C)(C)C)C(=O)NCC#N | 4.72 | 6.14 | 6.19 | – | 6.18 |
| N#CCNC(=O)CNS(=O)(=O)c1ccc2ccccc2c1 | 4.60 | < 4.00 | 5.00 | – | 5.60 |
| CC(C)(C)OC(=O)N[C@@H](Cc1ccc(O)cc1)C(=O)NCC#N | 6.40 | 4.52 | 6.72 | – | 6.01 |
| CC(C)(C)OC(=O)NN(Cc1ccccc1)C(=O)NCC#N | < 4.00 | < 4.00 | 3.14 | – | < 4.30 |
| CC[C@H](NC(=O)OC(C)(C)C)C(=O)NCC#N | < 4.00 | 5.30 | 5.27 | – | 4.55 |
| N#CCNC(=O)[C@H](Cc1ccccc1)NC(=O)c1ccc(-c2ccccc2)cc1 | 6.26 | 6.52 | 7.80 | – | 6.62 |
| CCC[C@H](NC(=O)OC(C)(C)C)C(=O)NCC#N | 4.66 | 5.96 | 6.12 | – | 6.05 |
| C#CCNC(=O)[C@H](Cc1ccccc1)NC(=O)OC(C)(C)C | < 3.00 | < 3.00 | 3.30 | – | < 4.00 |
| CC(C)(C)OC(=O)N[C@@H](Cc1ccccc1F)C(=O)NCC#N | 6.33 | 5.48 | 6.40 | – | 6.11 |
| CC(C)[C@H](NC(=O)OC(C)(C)C)C(=O)NCC#N | 5.55 | 5.19 | 5.70 | – | 5.21 |
| CC(C)(C)OC(=O)N[C@H](Cc1ccccc1)C(=O)NCC#N | – | < 4.00 | 4.39 | – | 4.34 |
| CC(C)(C)OC(=O)N[C@@H](COCc1ccccc1)C(=O)NCC#N | 4.48 | < 4.00 | 4.96 | – | 5.66 |
| CC(C)(C)OC(=O)N[C@@H](Cc1ccsc1)C(=O)NCC#N | 5.35 | 5.68 | 6.24 | – | 6.12 |
| CN(CC#N)C(=O)[C@H](Cc1ccccc1)NC(=O)OC(C)(C)C | < 4.00 | < 4.00 | < 4.00 | – | < 4.00 |
| CC(=O)N[C@@H](Cc1ccccc1)C(=O)NCC#N | 5.24 | 5.12 | 6.42 | – | 5.85 |
| CC(C)(C)OC(=O)N[C@@H](Cc1cccc(Br)c1)C(=O)NCC#N | 6.57 | 5.19 | 6.48 | – | 6.47 |
| N#CCNC(=O)[C@H](Cc1ccccc1)NC(=O)OCc1ccccc1 | 6.74 | 6.59 | 6.44 | 6.64 | 6.29 |
| CC(C)(C)OC(=O)N[C@@H](Cc1ccccc1Br)C(=O)NCC#N | 5.96 | 5.38 | 6.34 | – | 6.21 |
| CC(C)C[C@H](NC(=O)OC(C)(C)C)C(=O)NCC#N | 5.92 | 6.92 | 5.70 | – | 6.89 |
| CC(C)(C)OC(=O)N[C@@H](Cc1c[nH]c2ccccc12)C(=O)NCC#N | 6.46 | 4.54 | 5.12 | 6.37 | 6.62 |
| CC(C)(C)OC(=O)N[C@@H](Cc1cccc2ccccc12)C(=O)NCC#N | 5.77 | 4.18 | 4.55 | – | 5.89 |

| SMILES | pKi [1] | pKi [2] | pKi [3] | pKi [4] | pKi [5] |
| --- | --- | --- | --- | --- | --- |
| CC(C)(C)OC(=O)N[C@@H](Cc1ccccc1)C(=O)NCC#N | – | 5.39 | 6.59 | – | 6.21 |
| CC(C)(C)OC(=O)N[C@@H](Cc1cccc(-c2ccccc2)c1)C(=O)NCC#N | 6.37 | 4.59 | 5.92 | – | 6.57 |
| CC(C)(C)OC(=O)N1CCC[C@H]1C(=O)NCC#N | < 4.00 | < 4.00 | 3.27 | – | < 4.00 |
| CC(C)(C)OC(=O)N[C@@H](CC1CCCCC1)C(=O)NCC#N | 5.96 | 5.28 | 5.66 | – | 7.36 |
| CC(C)(C)OC(=O)N[C@@H](CCc1ccccc1)C(=O)NCC#N | 5.03 | 5.07 | 4.92 | – | 5.72 |
| CC(C)(C)OC(=O)N[C@@H](Cc1ccccc1)C(=O)NCC=O (Boc-Phe-Gly-aldehyde) | 7.66 | 7.13 | 7.82 | – | 7.60 |
| CC(C)(C)OC(=O)N[C@@H](Cc1ccc(-c2ccccc2)cc1)C(=O)NCC#N | 6.47 | 4.80 | 7.80 | – | 6.36 |
| N#CCNC(=O)CNC(=O)OCc1ccccc1 | < 3.00 | < 3.00 | 2.80 | – | < 3.00 |
| CC(C)C[C@H](NC(=O)OCc1ccccc1)C(=O)NCC#N | 6.12 | 7.46 | 5.51 | – | 6.89 |
| CC(C)(C)OC(=O)N[C@@H](Cc1cccc(F)c1)C(=O)NCC#N | 6.15 | 5.20 | 6.30 | – | 6.07 |
| CC(C)(C)OC(=O)N[C@@H](Cc1ccco1)C(=O)NCC#N | 4.85 | 5.39 | 5.92 | – | 5.55 |
| CC[C@@H](C)[C@H](NC(=O)OC(C)(C)C)C(=O)NCC#N | 5.31 | 5.24 | 4.59 | – | 5.39 |
| C[C@H](NC(=O)OC(C)(C)C)C(=O)NCC#N | < 4.00 | 3.87 | 4.66 | – | 3.53 |
| CCCC[C@H](NC(=O)OC(C)(C)C)C(=O)NCC#N | 4.72 | 5.90 | 5.80 | – | 6.26 |
| CC(=O)CNC(=O)[C@H](Cc1ccccc1)NC(=O)OC(C)(C)C | 5.64 | 5.68 | 3.73 | – | 5.68 |
| CC(C)(C)OC(=O)NCC(=O)NCC#N | < 3.00 | < 3.00 | < 2.52 | – | < 3.00 |
| CC(C)(C)OC(=O)N[C@@H](Cc1ccc(Br)cc1)C(=O)NCC#N | 6.20 | 4.55 | 7.54 | – | 6.72 |
| CC(C)(C)OC(=O)N[C@@H](Cc1ccc(F)cc1)C(=O)NCC#N | 6.19 | 4.89 | 6.57 | – | 6.23 |
| CC(C)(C)OC(=O)N[C@@H](CC1CC1)C(=O)NCC#N | 4.33 | 5.48 | 4.89 | – | 6.19 |
| C=CCNC(=O)[C@H](Cc1ccccc1)NC(=O)OC(C)(C)C | < 3.00 | < 3.00 | 3.30 | – | < 4.00 |
| N#CCNC(=O)[C@H](Cc1ccccc1)NC(=O)c1ccccc1 | 6.64 | 5.82 | 7.21 | – | 7.11 |
| CC(C)(C)OC(=O)N[C@@H](Cc1ccc2ccccc2c1)C(=O)NCC#N | 6.92 | 4.08 | 7.68 | – | 7.08 |
| CC(C)(C)OC(=O)N[C@@H](Cc1cccs1)C(=O)NCC#N | 5.80 | 5.92 | 6.72 | – | 6.57 |
| CC(C)(C)OC(=O)N[C@H](C(=O)NCC#N)c1ccccc1 | 4.54 | 4.05 | 4.08 | – | 5.77 |
